Earlier results as cited in paper PMC6044621 (ACS Omega, 2016).

Test system: Cbx7
Conditions: ref 13c

UNC3866
potency as Cbx7 inhibitor: 0.097 µM
